# Data from ChEMBL document CHEMBL3885881, “DrugMatrix”.
# Species on record: Rattus norvegicus
# Assay: DrugMatrix - Regimen: Daily Repeat
# Type: toxicity, organism-based, Sprague-Dawley
# Parameters: regimen Daily Repeat, gender Male, age 6-8 weeks
# Settings: in vivo, po, route oral GAVAGE, vehicle 100 % WATER
# [1] = 9 mg/kg, 72 h, tissue Blood, dose level Low, time 3 day
# [2] = 9 mg/kg, 72 h, tissue Plasma, dose level Low, time 3 day
# [3] = 9 mg/kg, 120 h, tissue Blood, dose level Low, time 5 day
# [4] = 9 mg/kg, 120 h, tissue Plasma, dose level Low, time 5 day
# [5] = 90 mg/kg, 72 h, tissue Blood, dose level High, time 3 day
# [6] = 90 mg/kg, 72 h, tissue Plasma, dose level High, time 3 day
# [7] = 90 mg/kg, 120 h, tissue Blood, dose level High, time 5 day
# [8] = 90 mg/kg, 120 h, tissue Plasma, dose level High, time 5 day
sequence,measurement,setting,value
STANNOUS FLUORIDE,ABSOLUTE BASOPHIL,[1],0 CELLS/uL
same,ABSOLUTE EOSINOPHIL,[1],0 CELLS/uL
same,ABSOLUTE LYMPHOCYTE,[1],13273.33 CELLS/uL
same,ABSOLUTE MONOCYTE,[1],348.33 CELLS/uL
same,ABSOLUTE SEGMENTED NEUTROPHIL,[1],1378.33 CELLS/uL
same,BASOPHIL,[1],0%
same,EOSINOPHIL,[1],0%
same,ERYTHROCYTE COUNT,[1],5.48 x10E6/uL
same,HEMATOCRIT,[1],34.9%
same,HEMOGLOBIN,[1],13.5 G/DL
same,LEUKOCYTE COUNT,[1],15 x10E3/uL
same,MEAN CORPUSCULAR HEMOGLOBIN,[1],24.67 pg
same,MEAN CORPUSCULAR HEMOGLOBIN CONCENTRATION,[1],38.7 G/DL
same,NUCLEATED RED BLOOD CELLS,[1],0 /100WBC
same,PLATELET COUNT,[1],1118.33 x10E3/uL
same,ALANINE AMINOTRANSFERASE,[2],80.67 u/L
same,ALKALINE PHOSPHATASE,[2],343 u/L
same,ASPARTATE AMINOTRANSFERASE,[2],104.33 u/L
same,BLOOD UREA NITROGEN,[2],17 mg/dL
same,CARBON DIOXIDE,[2],21.33 mmol/L
same,CHOLESTEROL,[2],77 mg/dL
same,CREATINE PHOSPHOKINASE,[2],322.33 u/L
same,CREATININE,[2],0.21 mg/dL
same,GLUCOSE,[2],188 mg/dL
same,LACTATE DEHYDROGENASE,[2],156 u/L
same,LIPASE,[2],9.5 u/L
same,PHOSPHORUS,[2],11.3 mg/dL
same,POTASSIUM,[2],6.63 MEQ/L
same,SODIUM,[2],146.2 MEQ/L
same,TOTAL BILIRUBIN,[2],0.37 mg/dL
same,TOTAL PROTEIN,[2],5.07 G/DL
same,URIC ACID,[2],1.73 mg/dL
same,ABSOLUTE BASOPHIL,[3],0 CELLS/uL
same,ABSOLUTE EOSINOPHIL,[3],174 CELLS/uL
same,ABSOLUTE LYMPHOCYTE,[3],11650 CELLS/uL
same,ABSOLUTE MONOCYTE,[3],421.33 CELLS/uL
same,ABSOLUTE SEGMENTED NEUTROPHIL,[3],1221.33 CELLS/uL
same,BASOPHIL,[3],0%
same,EOSINOPHIL,[3],1%
same,ERYTHROCYTE COUNT,[3],5.66 x10E6/uL
same,HEMATOCRIT,[3],35.6%
same,HEMOGLOBIN,[3],13.1 G/DL
same,LEUKOCYTE COUNT,[3],13.47 x10E3/uL
same,LYMPHOCYTE,[3],86.67%
same,MEAN CORPUSCULAR HEMOGLOBIN,[3],23.23 pg
same,MEAN CORPUSCULAR HEMOGLOBIN CONCENTRATION,[3],36.9 G/DL
same,MEAN CORPUSCULAR VOLUME,[3],62.97 fL
same,MONOCYTE,[3],3%
same,NUCLEATED RED BLOOD CELLS,[3],0 /100WBC
same,PLATELET COUNT,[3],1231.67 x10E3/uL
same,ALANINE AMINOTRANSFERASE,[4],45 u/L
same,ALKALINE PHOSPHATASE,[4],430.67 u/L
same,ASPARTATE AMINOTRANSFERASE,[4],96.67 u/L
same,BLOOD UREA NITROGEN,[4],22 mg/dL
same,CARBON DIOXIDE,[4],24.33 mmol/L
same,CHLORIDE,[4],108.67 MEQ/L
same,CHOLESTEROL,[4],59 mg/dL
same,CREATINE PHOSPHOKINASE,[4],371.67 u/L
same,CREATININE,[4],0.2 mg/dL
same,GLUCOSE,[4],135.33 mg/dL
same,LACTATE DEHYDROGENASE,[4],479 u/L
same,PHOSPHORUS,[4],12.03 mg/dL
same,POTASSIUM,[4],6.27 MEQ/L
same,SODIUM,[4],147.1 MEQ/L
same,TOTAL BILIRUBIN,[4],0.17 mg/dL
same,TOTAL PROTEIN,[4],6.13 G/DL
same,ABSOLUTE BASOPHIL,[5],0 CELLS/uL
same,ABSOLUTE EOSINOPHIL,[5],58 CELLS/uL
same,ABSOLUTE LYMPHOCYTE,[5],13530 CELLS/uL
same,ABSOLUTE MONOCYTE,[5],390.67 CELLS/uL
same,ABSOLUTE SEGMENTED NEUTROPHIL,[5],1821.33 CELLS/uL
same,BASOPHIL,[5],0%
same,EOSINOPHIL,[5],0.33%
same,ERYTHROCYTE COUNT,[5],5.56 x10E6/uL
same,HEMATOCRIT,[5],34%
same,LEUKOCYTE COUNT,[5],15.8 x10E3/uL
same,LYMPHOCYTE,[5],85.67%
same,MEAN CORPUSCULAR HEMOGLOBIN,[5],23.23 pg
same,MEAN CORPUSCULAR HEMOGLOBIN CONCENTRATION,[5],38 G/DL
same,NEUTROPHIL,[5],11.67%
same,NUCLEATED RED BLOOD CELLS,[5],0 /100WBC
same,PLATELET COUNT,[5],1397.33 x10E3/uL
same,ALANINE AMINOTRANSFERASE,[6],42 u/L
same,ALKALINE PHOSPHATASE,[6],299.67 u/L
same,ASPARTATE AMINOTRANSFERASE,[6],76.33 u/L
same,CARBON DIOXIDE,[6],25 mmol/L
same,CHOLESTEROL,[6],62.33 mg/dL
same,CREATINE PHOSPHOKINASE,[6],334 u/L
same,CREATININE,[6],0.15 mg/dL
same,LACTATE DEHYDROGENASE,[6],108 u/L
same,PHOSPHORUS,[6],13.3 mg/dL
same,POTASSIUM,[6],6 MEQ/L
same,TOTAL BILIRUBIN,[6],0.23 mg/dL
same,TOTAL PROTEIN,[6],5.67 G/DL
same,ABSOLUTE BASOPHIL,[7],0 CELLS/uL
same,ABSOLUTE EOSINOPHIL,[7],49.67 CELLS/uL
same,ABSOLUTE MONOCYTE,[7],426 CELLS/uL
same,ABSOLUTE SEGMENTED NEUTROPHIL,[7],994 CELLS/uL
same,BASOPHIL,[7],0%
same,EOSINOPHIL,[7],0.33%
same,ERYTHROCYTE COUNT,[7],5.79 x10E6/uL
same,HEMATOCRIT,[7],36.83%
same,HEMOGLOBIN,[7],13.8 G/DL
same,LEUKOCYTE COUNT,[7],14.2 x10E3/uL
same,MEAN CORPUSCULAR HEMOGLOBIN,[7],23.9 pg
same,MEAN CORPUSCULAR HEMOGLOBIN CONCENTRATION,[7],37.5 G/DL
same,MONOCYTE,[7],3%
same,NEUTROPHIL,[7],7%
same,NUCLEATED RED BLOOD CELLS,[7],0 /100WBC
same,PLATELET COUNT,[7],1414 x10E3/uL
same,ALANINE AMINOTRANSFERASE,[8],41.33 u/L
same,ALKALINE PHOSPHATASE,[8],357 u/L
same,ASPARTATE AMINOTRANSFERASE,[8],86.33 u/L
same,CARBON DIOXIDE,[8],24.33 mmol/L
same,CREATINE PHOSPHOKINASE,[8],353.67 u/L
same,CREATININE,[8],0.22 mg/dL
same,GLUCOSE,[8],190.67 mg/dL
same,LACTATE DEHYDROGENASE,[8],202.33 u/L
same,PHOSPHORUS,[8],14.33 mg/dL
same,POTASSIUM,[8],6.7 MEQ/L
same,SODIUM,[8],150 MEQ/L
same,TOTAL BILIRUBIN,[8],0.2 mg/dL
same,TOTAL PROTEIN,[8],5.87 G/DL
same,URIC ACID,[8],2.3 mg/dL
